In publication PMC4138103 (PLoS ONE, 2014):
Read-outs that look alike come from different tables or passages of the source.

System: Sprague-Dawley rats
Test: Clinical chemistry
Type: in vivo, Rattus norvegicus
Set-up: key to Cholesterol, Dose response / Triglyserides, Dose response / Glucose, Dose response / Albumin, Dose response / K, Dose response / Total bilirubin, Dose response: D: significant dose response (for results, see Table 2); T: significant trend
Details: for CED, Glucose / CED, Potassium / CED-L, Glucose / CED-L, Potassium / CED, Alkaline phosphatase / CED, Chlolesterol / CED, Total Bilirubin / CED-L, Alkaline phosphatase / CED-L, Chlolesterol / CED-L, Total Bilirubin / CED, Albumin / CED-L, Albumin / CED, Total protein / CED, Triglycerides / CED-L, Total protein / CED-L, Triglycerides: adipose tissue concentration based; for Emax: Rattus norvegicus
Procedure: Spectrophotometric methods were used for the determination of serum total calcium, cholesterol, creatinine, glucose, triglycerides and urea. Serum sodium, potassium and chloride concentrations were measured directly by ion selective electrodes. The analyses were performed by a clinical chemistry analyzer (Konelab 30i, ThermoFisher Scientific, Vantaa, Finland). Plasma lactate dehydrogenase (LD) activity was measured according to the recommendations of the International Federation of Clinical Chemistry (IFCC 1994/I) using Konelab 60i clinical chemistry analyzer. Methods and results for liver related parameters (serum alanine aminotransferase [ALT] activity, alkaline phosphatase [ALP] activity, albumin, total protein and total bilirubin are reported separately.
Data were also analyzed using the BMD method, which is based on dose-response modeling of the full data set using a nested family of exponential and Hill models. The analyses were done on data of males and females combined, using sex as a covariate. […] In that case, different Critical Effect Doses (CEDs) and CEDs at the lowest bound of the confidence interval (CED-L) were generated for each sex. If no difference between sexes is detected, a CED and CED-Ls for the combined data is generated. However, this was also done if the curve fits are close, and separate analyses for males and females were then performed manually. CEDs and CED-Ls were calculated at the predefined Critical Effect Size (CES) of 5% (EFSA standard) or 10%.

[1] = females, total dose 0-1700 mg/kg bw

Clc1cc(Cl)c(-c2cc(Cl)c(Cl)c(Cl)c2Cl)cc1Cl [PCB 180, 2,2′,3′,4,4′,5,5′-heptachlorobiphenyl]
CED, Glucose (F, CES 5%, model E2): 4450 µg/g lipid | CED, Potassium (F, CES 5%, model E2): 7900 µg/g lipid | CED-L, Glucose (F, CES 5%, model E2): 2648 µg/g lipid | CED-L, Potassium (F, CES 5%, model E2): 5086 µg/g lipid | CED, Alkaline phosphatase (F, CES 5%, model E4): 308 µg/g lipid | CED, Chlolesterol (F, CES 5%, model E4): 640 µg/g lipid | CED, Total Bilirubin (F, CES 5%, model E4): 19.4 µg/g lipid | CED-L, Alkaline phosphatase (F, CES 5%, model E4): 136 µg/g lipid | CED-L, Chlolesterol (F, CES 5%, model E4): 387 µg/g lipid | CED-L, Total Bilirubin (F, CES 5%, model E4): 3.77 µg/g lipid | CED, Glucose (F, CES 10%, model E2): 9140 µg/g lipid | CED, Potassium (F, CES 10%, model E2): 16200 µg/g lipid | CED-L, Glucose (F, CES 10%, model E2): 5440 µg/g lipid | CED-L, Potassium (F, CES 10%, model E2): 10450 µg/g lipid | CED, Alkaline phosphatase (F, CES 10%, model E4): 701 µg/g lipid | CED, Chlolesterol (F, CES 10%, model E4): 1330 µg/g lipid | CED, Total Bilirubin (F, CES 10%, model E4): 48.2 µg/g lipid | CED-L, Alkaline phosphatase (F, CES 10%, model E4): 309 µg/g lipid | CED-L, Chlolesterol (F, CES 10%, model E4): 813 µg/g lipid | CED-L, Total Bilirubin (F, CES 10%, model E4): 8.98 µg/g lipid | CED, Albumin (M, CES 5%, model E2): 6750 µg/g lipid | CED, Alkaline phosphatase (M, CES 5%, model E2): 2300 µg/g lipid | CED, Glucose (M, CES 5%, model E2): 866 µg/g lipid | CED-L, Albumin (M, CES 5%, model E2): 4696 µg/g lipid | CED-L, Alkaline phosphatase (M, CES 5%, model E2): 1393 µg/g lipid | CED-L, Glucose (M, CES 5%, model E2): 632 µg/g lipid | CED, Chlolesterol (M, CES 5%, model E4): 177 µg/g lipid | CED, Total protein (M, CES 5%, model E4): 1080 µg/g lipid | CED, Triglycerides (M, CES 5%, model E4): 12.5 µg/g lipid | CED-L, Chlolesterol (M, CES 5%, model E4): 91.4 µg/g lipid | CED-L, Total protein (M, CES 5%, model E4): 575 µg/g lipid | CED-L, Triglycerides (M, CES 5%, model E4): 7.26 µg/g lipid | CED, Albumin (M, CES 10%, model E2): 13200 µg/g lipid | CED, Alkaline phosphatase (M, CES 10%, model E2): 4730 µg/g lipid | CED, Glucose (M, CES 10%, model E2): 1780 µg/g lipid | CED-L, Albumin (M, CES 10%, model E2): 9174 µg/g lipid | CED-L, Alkaline phosphatase (M, CES 10%, model E2): 2861 µg/g lipid | CED-L, Glucose (M, CES 10%, model E2): 1297 µg/g lipid | CED, Chlolesterol (M, CES 10%, model E4): 365 µg/g lipid | CED, Total protein (M, CES 10%, model E4): 2970 µg/g lipid | CED, Triglycerides (M, CES 10%, model E4): 26.2 µg/g lipid | CED-L, Chlolesterol (M, CES 10%, model E4): 189 µg/g lipid | CED-L, Total protein (M, CES 10%, model E4): 1629 µg/g lipid | CED-L, Triglycerides (M, CES 10%, model E4): 15.2 µg/g lipid | Emax (F, model E2, controls vs high dose according to the fitted model, read-out: Maximum response, Glucose): -12.2% | Emax (F, model E2, controls vs high dose according to the fitted model, read-out: Maximum response, Potassium): -7.07% | Emax (F, model E4, controls vs high dose according to the fitted model, read-out: Maximum response, Alkaline phosphatase): -25.7% | Emax (F, model E4, controls vs high dose according to the fitted model, read-out: Maximum response, Chlolesterol): 53.8% | Emax (F, model E4, controls vs high dose according to the fitted model, read-out: Maximum response, Total Bilirubin): -18.2% | Emax (females, controls vs high dose, fitted model, read-out: Alkaline phosphatase, Maximum response): -25.7% | Emax (females, controls vs high dose, fitted model, read-out: Chlolesterol, Maximum response): 54.1% | Emax (females, controls vs high dose, fitted model, read-out: Glucose, Maximum response): -12.1% | Emax (females, controls vs high dose, fitted model, read-out: Potassium, Maximum response): -7% | Emax (females, controls vs high dose, fitted model, read-out: Total Bilirubin, Maximum response): -17.9% | Emax (males, controls vs high dose, fitted model, read-out: Albumin, Maximum response): 5.5% | Emax (males, controls vs high dose, fitted model, read-out: Alkaline phosphatase, Maximum response): -14.9% | Emax (males, controls vs high dose, fitted model, read-out: Chlolesterol, Maximum response): 80.8% | Emax (males, controls vs high dose, fitted model, read-out: Glucose, Maximum response): -35.6% | Emax (males, controls vs high dose, fitted model, read-out: Total protein, Maximum response): 14.1% | Emax (males, controls vs high dose, fitted model, read-out: Triglycerides, Maximum response): -62.2% | Emax (model E2, controls vs high dose according to the fitted model, read-out: Maximum response, Albumin): 5.49% | Emax (model E2, controls vs high dose according to the fitted model, read-out: Maximum response, Alkaline phosphatase): -15.4% | Emax (model E2, controls vs high dose according to the fitted model, read-out: Maximum response, Glucose): -35.4% | Emax (model E4, controls vs high dose according to the fitted model, read-out: Maximum response, Chlolesterol): 81.7% | Emax (model E4, controls vs high dose according to the fitted model, read-out: Maximum response, Total protein): 14.2% | Emax (model E4, controls vs high dose according to the fitted model, read-out: Maximum response, Triglycerides): -62.5% | Cholesterol, Dose response [1]: T | Glucose, Dose response [1]: T | K, Dose response [1]: T
